Assay results published in patent EP0565593B1, “REDUCING PESTICIDAL INTERACTIONS IN CROPS” (priority 1990, dated 1992).

Tested on: Corn
Assay: Greenhouse test, combination of Procedures II and III: insecticide in-furrow or in cover layer, herbicide and antidote incorporated in cover layer (Examples 1-3, 6; Tables 1-3, 6)
Type: in vivo
Conditions: for % Injury Corn / % Corn Injury PN 3320 / % Corn Injury PN 3377: 3 weeks; for Percent Injury Corn: 7 weeks; for corn injury safened: 0.14 kg/ha herbicide plus Insecticide No. 1, Antidote No. 1 0.42 kg/ha
[1] = Ex. 6: Antidote 1 0.14 + Herbicide 1 0.14 Kg/Ha
[2] = Ex. 6: Antidote 1 0.42 + Herbicide 1 0.14 Kg/Ha
[3] = Ex. 6: Antidote 1 0.56 + Herbicide 1 0.56 Kg/Ha
[4] = Ex. 6: Antidote 1 1.68 + Herbicide 1 0.56 Kg/Ha
[5] = Ex. 6: Insecticide 1 0.23 Kg/305m + Antidote 1 0.14 + Herbicide 1 0.14 Kg/Ha
[6] = Ex. 6: Insecticide 1 0.23 Kg/305m + Antidote 1 0.42 + Herbicide 1 0.14 Kg/Ha
[7] = Ex. 6: Insecticide 1 0.23 Kg/305m + Antidote 1 0.56 + Herbicide 1 0.56 Kg/Ha
[8] = Ex. 6: Insecticide 1 0.23 Kg/305m + Antidote 1 1.68 + Herbicide 1 0.56 Kg/Ha
[9] = Ex. 6: Insecticide 2 0.23 Kg/305m + Antidote 1 0.14 + Herbicide 1 0.14 Kg/Ha
[10] = Ex. 6: Insecticide 2 0.23 Kg/305m + Antidote 1 0.42 + Herbicide 1 0.14 Kg/Ha
[11] = Ex. 6: Insecticide 2 0.23 Kg/305m + Antidote 1 0.56 + Herbicide 1 0.56 Kg/Ha
[12] = Ex. 6: Insecticide 2 0.23 Kg/305m + Antidote 1 1.68 + Herbicide 1 0.56 Kg/Ha

CC1(C)OC(c2ccco2)CN1C(=O)C(Cl)Cl (stereo not shown) [Antidote No. 1, Oxazolidine, 3-(dichloroacetyl)-2,2-dimethyl-5-(2-furanyl)-]
% Injury Corn (Ex. 2: Antidote 1 0.14 + Herbicide 1 0.14 Kg/Ha): 0% | % Injury Corn (Ex. 2: Antidote 1 0.42 + Herbicide 1 0.14 Kg/Ha): 8% | % Injury Corn (Ex. 2: Antidote 1 0.56 + Herbicide 1 0.56 Kg/Ha): 3% | % Injury Corn (Ex. 2: Antidote 1 1.68 + Herbicide 1 0.56 Kg/Ha): 5% | injury to corn (Ex. 2: Herbicide No. 1 0.14 kg/ha + Insecticide 1 or 2, antidote applied at 3 X the herbicide rate): less than 10% | % Injury Corn (Ex. 2: Insecticide 1 0.11 kg/305m + Antidote 1 0.14 + Herbicide 1 0.14 Kg/Ha): 26% | % Injury Corn (Ex. 2: Insecticide 1 0.11 kg/305m + Antidote 1 0.42 + Herbicide 1 0.14 Kg/Ha): 6% | % Injury Corn (Ex. 2: Insecticide 1 0.11 kg/305m + Antidote 1 0.56 + Herbicide 1 0.56 Kg/Ha): 30% | % Injury Corn (Ex. 2: Insecticide 1 0.11 kg/305m + Antidote 1 1.68 + Herbicide 1 0.56 Kg/Ha): 18% | % Injury Corn (Ex. 2: Insecticide 1 0.23 Kg/305m + Antidote 1 0.14 + Herbicide 1 0.14 Kg/Ha): 18% | % Injury Corn (Ex. 2: Insecticide 1 0.23 Kg/305m + Antidote 1 0.22 + Herbicide 1 0.14 + Herbicide 2 4.48 Kg/Ha): 20% | % Injury Corn (Ex. 2: Insecticide 1 0.23 Kg/305m + Antidote 1 0.42 + Herbicide 1 0.14 Kg/Ha): 6% | % Injury Corn (Ex. 2: Insecticide 1 0.23 Kg/305m + Antidote 1 0.56 + Herbicide 1 0.56 Kg/Ha): 33% | % Injury Corn (Ex. 2: Insecticide 1 0.23 Kg/305m + Antidote 1 1.68 + Herbicide 1 0.56 Kg/Ha): 34% | % Injury Corn (Ex. 2: Insecticide 2 3.36 Kg/Ha + Antidote 1 0.22 + Herbicide 1 0.14 + Herbicide 2 4.48 Kg/Ha): 29% | % Injury Corn (Ex. 2: Insecticide 2 3.36 Kg/Ha + Antidote 1 0.22 + Herbicide 2 4.48 Kg/Ha): 19% | % Injury Corn (Ex. 3: Antidote 1 0.14 + Herbicide 1 0.14 Kg/Ha): 3% | % Injury Corn (Ex. 3: Antidote 1 0.22 + Herbicide 2 4.48 Kg/Ha): 13% | % Injury Corn (Ex. 3: Antidote 1 0.42 + Herbicide 1 0.14 Kg/Ha): 3% | % Injury Corn (Ex. 3: Antidote 1 0.56 + Herbicide 1 0.56 Kg/Ha): 8% | % Injury Corn (Ex. 3: Antidote 1 1.68 + Herbicide 1 0.56 Kg/Ha): 3% | corn injury (Ex. 3: Herbicide No. 1 + Insecticide 3 or 4, Antidote No. 1 at 1:1 ratio, all cases): less than 5% | % Injury Corn (Ex. 3: Insecticide 3 (227g) + Antidote 1 0.14 + Herbicide 1 0.14 Kg/Ha): 0% | % Injury Corn (Ex. 3: Insecticide 3 (227 g) + Antidote 1 0.22 + Herbicide 1 0.14 + Herbicide 2 4.48 Kg/Ha): 18% | % Injury Corn (Ex. 3: Insecticide 3 (227 g) + Antidote 1 0.22 + Herbicide 2 4.48 Kg/Ha): 25% | % Injury Corn (Ex. 3: Insecticide 3 (227g) + Antidote 1 0.42 + Herbicide 1 0.14 Kg/Ha): 20% | % Injury Corn (Ex. 3: Insecticide 3 (227g) + Antidote 1 1.68 + Herbicide 1 0.56 Kg/Ha): 8% | % Injury Corn (Ex. 3: Insecticide 4 (227g) + Antidote 1 0.14 + Herbicide 1 0.14 Kg/Ha): 3% | % Injury Corn (Ex. 3: Insecticide 4 (227g) + Antidote 1 0.22 + Herbicide 1 0.14 + Herbicide 2 4.48 Kg/Ha): 48% | % Injury Corn (Ex. 3: Insecticide 4 (227g) + Antidote 1 0.22 + Herbicide 2 4.48 Kg/Ha): 45% | % Injury Corn (Ex. 3: Insecticide 4 (227g) + Antidote 1 0.42 + Herbicide 1 0.14 Kg/Ha): 5% | % Injury Corn (Ex. 3: Insecticide 4 (227g) + Antidote 1 0.56 + Herbicide 1 0.56 Kg/Ha): 28% | % Injury Corn (Ex. 3: Insecticide 4 (227g) + Antidote 1 1.68 + Herbicide 1 0.56 Kg/Ha): 5% | % Corn Injury PN 3320 [1]: 15% | % Corn Injury PN 3377 [1]: 15% | % Corn Injury PN 3320 [2]: 10% | % Corn Injury PN 3377 [2]: 0% | % Corn Injury PN 3320 [3]: 68% | % Corn Injury PN 3377 [3]: 0% | % Corn Injury PN 3320 [4]: 43% | % Corn Injury PN 3377 [4]: 0% | % Corn Injury PN 3320 [5]: 40% | % Corn Injury PN 3377 [5]: 18% | % Corn Injury PN 3320 [6]: 25% | % Corn Injury PN 3377 [6]: 3% | % Corn Injury PN 3320 [7]: 40% | % Corn Injury PN 3377 [7]: 35% | % Corn Injury PN 3320 [8]: 35% | % Corn Injury PN 3377 [8]: 35% | % Corn Injury PN 3320 [9]: 15% | % Corn Injury PN 3377 [9]: 0% | % Corn Injury PN 3320 [10]: 10% | % Corn Injury PN 3377 [10]: 13% | % Corn Injury PN 3320 [11]: 68% | % Corn Injury PN 3377 [11]: 10% | % Corn Injury PN 3320 [12]: 43% | % Corn Injury PN 3377 [12]: 28% | Percent Injury Corn (Insecticide 1 0.23 kg/305m + Antidote 1 0.14 + Herbicide 1 0.14 Kg/Ha): 8% | Percent Injury Corn (Insecticide 1 0.23 kg/305m + Antidote 1 0.14 Kg/Ha, no herbicide): 0% | Percent Injury Corn (Insecticide 1 0.23 kg/305m + Antidote 1 0.56 + Herbicide 1 0.56 Kg/Ha): 25% | Percent Injury Corn (Insecticide 1 0.23 kg/305m + Antidote 1 0.56 Kg/Ha, no herbicide): 0% | Percent Injury Corn (Insecticide 1 0.23 kg/305m + Antidote 1 2.24 + Herbicide 1 2.24 Kg/Ha): 77% | Percent Injury Corn (Insecticide 1 0.23 kg/305m + Antidote 1 2.24 Kg/Ha, no herbicide): 0% | Percent Injury Corn (Insecticide 1 (H2O) (crystals scattered in-furrow) + Antidote 1 2 + Herbicide 1 2 Kg/Ha): 78% | Percent Injury Corn (Insecticide 1 (H2O) (crystals scattered in-furrow) + Antidote 1 2 Kg/Ha): 13% | Percent Injury Corn (Insecticide 2 3.36 kg/ha + Antidote 1 0.14 + Herbicide 1 0.14 Kg/Ha): 75% | Percent Injury Corn (Insecticide 2 3.36 kg/ha + Antidote 1 0.14 Kg/Ha, no herbicide): 0% | Percent Injury Corn (Insecticide 2 3.36 kg/ha + Antidote 1 0.56 + Herbicide 1 0.56 Kg/Ha): 70% | Percent Injury Corn (Insecticide 2 3.36 kg/ha + Antidote 1 0.56 Kg/Ha, no herbicide): 0% | Percent Injury Corn (Insecticide 2 3.36 kg/ha + Antidote 1 2.24 + Herbicide 1 2.24 Kg/Ha): 92% | Percent Injury Corn (Insecticide 2 3.36 kg/ha + Antidote 1 2.24 Kg/Ha, no herbicide): 0% | corn injury safened (sensitive genotype PN 3320): 74% | corn injury safened (tolerant genotype PN 3377): 96%
